The subject of assay [1] is mild to moderate flares of ulcerative colitis. Conditions: first line therapy; cited from earlier work.
In the next assay the test system is DSS colitis. The assay can be described thus: Acute mouse model of DSS colitis, therapeutic model (I. colisanans MH27-2). In kind it is in vivo, female C57BL/6 mice. As to conditions: 2.5% DSS, daily treatment Day 4 to Day 10. The source says:
The therapeutic efficacy of I. colisanans MH27-2 in an acute mouse model of DSS colitis was examined, with prednisone acting as a positive control drug.
For the therapeutic model, groups of 10 or 20 female C57BL/6 mice were used. All animals, except those in the healthy group, were given 2.5% dextran sodium sulfate (DSS) in the drinking water for 6 days total (Day 0 to Day 5). DSS was then withdrawn and replaced with normal drinking water for a further 5 days (Day 6 to Day 10). For the treatments, mice were given once daily oral gavage of 200 μL of I. colisanans MH27-2 at a dose of 2×10^8 viable cells per day, or vehicle consisting of sterile glycerol and phosphate buffered salt solution. The positive control drug prednisone was similarly administered via oral gavage at a dose of 2 mg/kg per day. Treatments started on Day 4 and were given for 7 consecutive days until Day 10. Animals were sacrificed on Day 10 approximately 4 hours after the final treatment. Colon was harvested, rinsed, weighed, photographed, cut longitudinally. Colon tissue was fixed in 4% formalin and kept in 70% ethanol for histopathology using the Swiss-roll method.

Assay [2] deals with DSS induced murine colitis. The assay can be described thus: Acute model of DSS induced murine colitis, prophylactic model. In kind it is in vivo, C57BL/6 female mice. The text has this: The present inventors hypothesised that the big-data approach could be used to identify novel candidate live biotherapeutics for inflammatory bowel disease. We therefore tested the therapeutic efficacy of I. colisanans MH27-1 in an acute model of DSS induced murine colitis (FIG. 4A) as this is a well-documented model of epithelial injury and repair. […] As expected, prednisone exacerbated the DSS induced weight loss (Yamamoto, 2013), however DSS induced weight loss was ameliorated by treatment with I. colisanans MH27-1 or F. prausnitzii A2-165 (FIG. 4B).
I. colisanans strains were grown to early stationary phase in PYG or YG/V. F. prausnitzii was grown in TY medium. The cell density of the individual cultures was calculated using a Helber Counting Chamber. To prepare the bacterial gavage solutions, individual cultures were centrifuged under a layer of sterile heavy mineral oil at 5,000 g for 10 minutes and the cell-free supernatant was then discarded. The cell pellets were washed in 1.5 ml of sterile anaerobic buffered diluent (38 ml/L each of salt solutions 2 & 3 (McSweeney, 2005), 1 ml/L of 0.1% (w/v) resazurin solution, 1 g/L L-cysteine) and then centrifuged again. […]
For the prophylactic model, six-week-old C57BL/6 female mice purchased from Animal Resources Centres (Western Australia, Australia) were randomised and then co-housed for 7 days prior to experimentation. […] Body weights and stool consistency were recorded daily. […]
Animals were examined with a small animal gastrointestinal endoscope (Karl Storz Endoskope, Tuttlingen, Germany) on days −1, 2 and 6 to assess the extent of colon mucosal inflammation (Marks, 2015; and Liu, 2019). […] To grade colitis severity, the extent of inflammation and epithelial injury in the tissue sections were graded semi-quantitatively using an established scoring system (Table 6). The samples were then randomised and subsequently scored in a blinded by a trained gastrointestinal pathologist.

For assay [3], the system named is IL-6 mediated activation of STAT3. Nature of the assay: IL-6 mediated STAT3 activation, HEK-Blue IL-6 reporter cell line (SEAP). In kind it is cell-based, human. As to conditions: control inhibitor, 10 μM. The text has this:
(§1) Increased levels of the pro-inflammatory cytokine IL-6 and signalling via its receptor IL-6R is associated with IBD pathogenesis. […] These effects are mediated by IL-6 receptor binding which causes JAK kinase activation and STAT3 dimerization in combination with activation of MAPK/ERK and other downstream kinases. Here, we examined whether I. colisanans MH27-1 and MH27-2 can suppress IL-6 classical and trans signalling mediated activation of STAT3 using the HEK-Blue™ IL-6 reporter cell line. The HEK-Blue™ IL-6 reporter cell line constitutively expresses the human IL-6 receptor and binding of IL-6 to the receptor triggers expression of a STAT3-responsive SEAP reporter. […] Additionally, I. colisanans MH27-2 suppressed IL-6 trans signalling mediated activation of STAT3 (FIG. 6G).
(§2) To assess IL-6 and IL-6/IL-6R-mediated STAT3 suppressive activity, three independent colonies were inoculated and grown until early stationary phase. […]
(§3) IL-6- and IL-6/IL-6R mediated STAT3 activity was assessed using the HEK Blue IL-6 cell line (Invivogen). […] After 24 hours, the STAT3 regulated SEAP reporter activity was assessed using Quanti Blue solution as recommended by the manufacturer (Invivogen). […] Cytotoxicity was assessed using the CellTiter-Glo® 2.0 Cell Viability Assay (Promega, Australia) as recommended by the manufacturer.

Assay [4] concerns IL-23-mediated activation of STAT3. Nature of the assay: IL-23 mediated STAT3 activation, HEK-Blue IL-23 reporter cell line (SEAP). The class given is cell-based, human. The source says: The present inventors next sought to investigate whether bacterial products naturally produced by the gut bacterium I. colisanans MH27, can modulate IL-23 mediated activation of STAT3. The JAK-STAT immune axis is a recognised and validated drug target for IBD (Salas et al., 2020) and other diseases (McLornan et al., 2021) with JAK-STAT pathway signalling targeted by several approved IBD therapeutics including anti-IL-23 antibodies (e.g., Ustekinumab) and small molecule inhibitors (e.g., tofacitinib) (Hu et al., 2021). As STAT3 suppression can reduce damaging inflammation, I. colisanans MH27 and/or its bioactives could potentially be used as novel immunoregulatory therapies for IBD and other diseases. The present inventors therefore examined whether I. colisanans MH27 can suppress IL-23-mediated activation of STAT3 using the HEK-Blue™ IL-23 reporter cell line. […]
IL-23-mediated STAT3 activity was assessed using the HEK Blue IL-23 cell line (Invivogen). […] SEAP is secreted into the medium and the extent of SEAP expression can be quantified using QUANTI-Blue solution. […]
SEAP production was quantified using QUANTI-BIue™ solution and recorded as optical density (OD) at 630 nm using a PHERAstar FS plate reader (BMG Labtech). […]

Assay [5] has as its system IL-6 trans signalling mediated activation of STAT3. Nature of the assay: IL-6/IL-6R trans signalling mediated STAT3 activation, HEK-Blue IL-6 reporter cell line. In kind it is cell-based, human. As to conditions: control inhibitor, 10 μM.
Text: as §1, §2, §3

Assay [6] relates to ZO1 expression in T84 cells. The assay can be described thus: IFNγ-mediated loss of ZO1 expression in T84 cells (immunofluorescence). Conditions: pre-treatment with 1 mM metabolite for 18 hours, IFNγ 48 hours. The class given is cell-based, human.
Setting [7] is: DSS treated mice, colon histology.

The text below walks through data of patent publication US20260027161A1, “BACTERIAL STRAINS FOR TREATING DISEASE” (MICROBA IP PTY LTD, priority 2021, published 2026).

As for `Nc1ccc(O)c(C(=O)O)c1` [Mesalmine], the response rates in assay [1] was 40%-70%. Regarding `C[C@]12C=CC(=O)C=C1CC[C@@H]1[C@@H]2C(=O)C[C@@]2(C)[C@H]1CC[C@]2(O)C(=O)CO` [prednisone], the “histological evidence of colitis” value in the assay with DSS colitis was “ameliorated”. Moreover, the “DSS induced weight loss (body weight)” value in assay [2] (3.5% DSS, daily treatment, compared to DSS+vehicle) is recorded as “exacerbated”. In addition, in assay [2] (setting [7]), the “disease pathology (histopathological score)” value is “significant improvement in disease pathology” and the epithelial injury result was “ameliorated”.

Regarding `C[C@@H]1CCN(C(=O)CC#N)C[C@@H]1N(C)c1ncnc2[nH]ccc12` [tofacitinib], the “IL-6 mediated activation of STAT3” value in assay [3] is on record as “fully prevented”. Moreover, the “IL-23 mediated activation of STAT3” value in assay [4] (control inhibitor, 5 μM) is on record as “fully prevented”. Also, the “IL-6/IL-6R mediated activation of STAT3” value in assay [5] is on record as “fully prevented”. Take `O=C(O)CCc1c[nH]c2ccccc12` [IPA, indole-3-proprionic acid]: the “IFNγ-induced reduction in ZO1 expression” value in assay [6] is recorded as “significantly ameliorated”. `O=C(O)C=Cc1c[nH]c2ccccc12` [IAyA, indole-3-acrylic acid]: in assay [6], the “IFNγ-induced reduction in ZO1 expression” value was “significantly ameliorated”.

In the case of `O=C1NC(Cc2ccccc2)C(=O)N2CCCC12` (centres unmarked) [cyclo(-Phe-Pro)], the “IL-23 mediated activation of STAT3” value in assay [4] (pure metabolite, relative to the vehicle control) is given as “suppressed”.
